According to publication PMC3491834 (EMBO Molecular Medicine, 2012):

Biological target: InhA, NADH-dependent enoyl-[Acyl-Carrier-Protein] reductase (Mycobacterium tuberculosis, UniProt P9WGR1)
Assay: enzyme turnover, NADH oxidation at […] nm
Assay type: biochemical

Chain of InhA, NADH-dependent enoyl-[Acyl-Carrier-Protein] reductase (P9WGR1 whole entry, looked up): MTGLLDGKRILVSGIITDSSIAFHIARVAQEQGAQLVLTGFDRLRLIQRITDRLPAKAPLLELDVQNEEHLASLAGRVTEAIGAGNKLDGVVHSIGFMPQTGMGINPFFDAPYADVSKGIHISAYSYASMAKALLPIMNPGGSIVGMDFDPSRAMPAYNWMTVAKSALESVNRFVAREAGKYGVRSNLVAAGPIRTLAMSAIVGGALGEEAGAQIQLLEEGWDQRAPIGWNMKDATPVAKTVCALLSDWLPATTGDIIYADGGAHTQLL

CCCCC/C=C/C(=O)SCCNC(=O)CCNC(=O)[C@H](O)C(C)(C)COP(=O)(O)OP(=O)(O)OC[C@H]1O[C@@H](n2cnc3c(N)ncnc32)[C@H](O)[C@@H]1OP(=O)(O)O [OcCoA, 2-trans-octenoyl-CoA]
enzyme turnover, NADH oxidation at 340 nm: All three enzymes were catalytically active and oxidized NADH in the presence of the substrate 2-trans-octenoyl-CoA (OcCoA)
